Assay results: PubChem BioAssay (NCI)
Several values for one entry are separate records, joined by “and”; a condition that tells them apart may be missing. Equal entries are not always repeated.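 Cells were grown in 96-well plates and exposed to each compound for 48 hours at five concentrations; endpoints were interpolated linearly between bracketing concentrations, or set to the highest concentration if not reached. At the GI50, growth is halved. At the TGI there is no net growth.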

How the values were obtained:
Test in all cases: NCI tumour cell line growth inhibition, 48 h
IGROV1 ovarian = tested on: IGROV1 ovarian
HOP-62 NSCLC = tested on: HOP-62 NSCLC
SN12C renal = tested on: SN12C renal
A498 renal = tested on: A498 renal
CAKI-1 renal = tested on: CAKI-1 renal
HT29 colon = tested on: HT29 colon
A549 NSCLC = tested on: A549 NSCLC
NCI/ADR-RES ovarian = tested on: NCI/ADR-RES ovarian
T-47D breast = tested on: T-47D breast
PC-3 prostate = tested on: PC-3 prostate

| SMILES | TGI (IGROV1 ovarian) [µM] | TGI (HOP-62 NSCLC) [µM] | TGI (SN12C renal) [µM] | TGI (A498 renal) | TGI (CAKI-1 renal) [µM] | TGI (HT29 colon) [µM] | TGI (A549 NSCLC) [µM] | GI50 (NCI/ADR-RES ovarian) [µM] | TGI (NCI/ADR-RES ovarian) [µM] | GI50 (T-47D breast) [µM] | TGI (T-47D breast) [µM] | GI50 (IGROV1 ovarian) [µM] | GI50 (HOP-62 NSCLC) [µM] | GI50 (PC-3 prostate) | TGI (PC-3 prostate) [µM] | GI50 (SN12C renal) [µM] | GI50 (CAKI-1 renal) [µM] | GI50 (HT29 colon) | GI50 (A549 NSCLC) | GI50 (A498 renal) [µM] |
| --- | --- | --- | --- | --- | --- | --- | --- | --- | --- | --- | --- | --- | --- | --- | --- | --- | --- | --- | --- | --- |
| O=C(O)/C(=C\c1ccccc1Cl)S(=O)(=O)c1ccccc1 | > 100 | > 100 | > 100 | > 100 µM | > 100 | > 100 | > 100 | – | – | – | – | – | – | – | – | – | – | – | – | – |
| N#C/C(N)=C(\C#N)N=Cc1csc2ccccc12 | 67.2 | 34.6 | > 100 | – | > 100 | > 100 | > 100 | 32.4 | > 100 | 1.07 | 28.5 | 15.8 | 15 | 47.3 µM | > 100 | 26.9 | 43.3 | 22.2 µM | 45.4 µM | – |
| O=[N+]([O-])/C=C\c1c[nH]c2ccc(OCc3ccccc3)cc12 | 15.8 | 29.4 | 10 | 22.6 µM | 53.5 | – | 14.8 | – | 50.1 | – | 12.4 | – | – | – | 21.5 | – | – | – | – | – |
| N[C@@H]1CCCC[C@@H]1N.O=C([O-])CN(CP(=O)([O-])[O-])CP(=O)([O-])[O-].[Pt+2] | > 100 | > 100 | > 100 | > 100 µM | > 100 | > 100 | > 100 | – | – | – | – | > 100 | > 100 | – | – | > 100 | > 100 | > 100 µM | > 100 µM | > 100 |
| Cc1cc(C)cc(Nc2ccc([N+](=O)[O-])c(NCCN3CCOCC3)n2)c1 | > 100 | 44.9 | > 100 | 0.00915 µM and 0.0676 µM | > 100 | > 100 | > 100 | 0.000646 | – | – | – | – | – | 0.00177 µM and 0.0106 µM | > 100 | 0.0706 | 0.00163 | 0.00219 µM and 0.0188 µM | 0.00286 µM and 0.02 µM | 0.000606 |
| COc1cc2c([C@@H](OC(=O)c3ccccc3)c3ccc4c(c3)OCO4)nccc2c(OC)c1OC | > 100 | > 100 | > 100 | > 100 µM | > 100 | > 100 | > 100 | – | – | – | – | – | – | – | – | – | – | – | – | – |
| COC(=O)/C(=C/c1ccc(OC)cc1)NC(=O)c1ccccc1 | > 100 | – | > 100 | > 100 µM | > 100 | > 100 | > 100 | – | – | – | – | – | – | – | – | – | – | – | – | – |
| Cc1[nH]nc2c1C(=O)C=C(N(CCO)c1ccccc1)C2=O | > 100 | – | > 100 | – | > 100 | > 100 | > 100 | – | – | – | – | – | – | – | – | – | – | – | – | – |
| C/C1=C/C(=O)O[C@@H]2C[C@@H](CC[C@H](C)/C=C\C=C\CC1)O[C@@](OCCc1ccccc1)([C@@H]1CSC(=O)N1)C2 | 0.074 | > 17.5 | > 17.5 | 0.133 µM | 0.0811 | > 15 | > 17.5 | 2.95 | > 17.5 | – | – | 0.0275 | 0.0777 | 0.0754 µM | > 17.5 | 0.0787 | 0.0222 | 0.0793 µM | 0.0754 µM | 0.0313 |
| O=C(NNS(=O)(=O)c1ccc(F)cc1)c1cccnc1Nc1ccc(Cl)cc1Cl | – | 84.5 | 31.7 | 36.5 µM | > 100 | 57.8 | 41 | 39.8 | > 100 | 18.7 | 98.1 | – | 30.9 | 14.8 µM | 32.1 | 17.6 | 31.2 | 22.1 µM | 17.2 µM | 17.3 |
| O=C(CNc1ncco1)Nc1ccc(S(=O)(=O)c2ccc(NC(=O)CNc3ncco3)cc2)cc1 | 5.32 | 4.09 | 14.7 | 62.7 µM | 3.28 | – | 6.42 | 3.02 | 19.6 | 1.87 | 4.38 | 1.76 | 2.07 | 2.49 µM | 8.32 | 3.77 | 1.56 | – | 2.2 µM | 21.8 |
| Cc1ccc(NC(=O)C2C(=O)N(c3ccc(C)c(C)c3)C(=O)/C2=N\NC(N)=S)cc1C (centres undefined) | > 100 | – | > 100 | – | > 100 | > 100 | > 100 | – | – | – | – | – | – | – | – | – | – | – | – | – |
| Cc1ccc(C2C3=C(N=c4s/c(=C/c5ccc(Br)cc5)c(=O)n42)c2ccc4ccccc4c2OCC3)cc1 (centres undefined) | > 100 | > 100 | – | > 100 µM | – | > 100 | > 100 | > 100 | > 100 | > 100 | > 100 | > 100 | > 100 | > 100 µM | > 100 | – | – | 67.8 µM | > 100 µM | > 100 |
| CCCCCC(O)(CCCCC)CCCCCCCCC1=C(O)c2[nH]c(=O)ccc2C(=O)C1=O | 18.9 | 24.9 | 21 | 24.6 µM | 32 | 30.5 | 26.3 | – | – | – | – | – | – | – | – | – | – | – | – | – |
| Cc1nc2cc(Nc3nc(Nc4ccc(F)cc4)nc(N4CCN(C)CC4)n3)ccc2n1Cc1ccccc1 | 5.83 | 3.65 | 3.34 | 3.19 µM | 5.4 | 3.28 | 3.15 | 2.71 | 7.6 | – | – | 2.45 | 1.85 | 2.04 µM | 5.4 | 1.67 | 2.19 | 1.66 µM | 1.51 µM | 1.56 |
| O=[N+]([O-])c1ccc(/C=C(/c2ccc([N+](=O)[O-])o2)S(=O)(=O)c2ccccc2)o1 | 30.6 | 38.3 | – | – | 33 | 13.6 | 38.2 | – | 39.1 | – | > 100 | – | – | – | 30.1 | – | – | – | – | – |
| CCCCCCNc1nc(N2CCOCC2)c2[nH]c(NCCCCCC)nc2n1 | – | 3.27 | 3.32 | 2.31 µM | 2.97 | – | 3.38 | 1.59 | 2.97 | – | – | – | 1.67 | 1.68 µM | 3.54 | 1.76 | 1.53 | – | 1.69 µM | 1.11 |
| CC1(C)CC(=O)C(=[N+]=[N-])C(=O)C1 | > 100 | > 100 | > 100 | – | > 100 | > 100 | > 100 | – | – | – | – | – | – | – | – | – | – | – | – | – |
